Values after ≈ are worked out from the molar mass of the structure shown.

The first series in a line: physchem. Conditions: organic solvent or mixture, thermodynamic from solid.
As usually defined, the solubility is the concentration that dissolves in the medium under given conditions. On to `C[N+]1(CCN2c3ccccc3N(c3ccccc3)c3ccccc32)CCCCC1.F[P-](F)(F)(F)(F)F` [1-Methyl-1-[2-(10-phenyl-10H-phenazin-5-yl)-ethyl]-piperidinium hexafluorophosphate], for which the solubility came out at 500 mM.

The next series can be described thus: Solubility at saturation in the solvent of interest, calculated from UV-VIS spectra of saturated solutions. Conditions: propylene carbonate, organic solvent or mixture, thermodynamic from solid.
In the case of `Cc1ccc2c(c1)N(C)c1ccc(C)cc1N2C` [2,5,7,10-Tetramethyl-5,10-dihydrophenazine, reference compound], the solubility is 55 mM (≈ 13100 µg/mL).
On the same count and under the same terms, the result for `c1ccc(N2c3ccccc3N(CCN3CCCCC3)c3ccccc32)cc1` [5-Phenyl-10-(2-piperidin-1-yl-ethyl)-5,10-dihydrophenazine, reference compound] reads 5 mM (≈ 1850 µg/mL); that for `CN1c2ccccc2N(C)c2ccccc21` [5,10-Dihydro-5,10-dimethylphenazine, reference compound], 110 mM (≈ 23100 µg/mL).
On the same count and under the same terms, with `CC[N+](CC)(CC)CCCCn1c(=NN=c2sc3ccccc3n2C)sc2ccccc21.F[B-](F)(F)F` [triethyl-(4-{2-[(3-methyl-3H-benzothiazol-2-ylidene)-hydrazono]-benzothiazol-3-yl}-butyl)-ammonium tetrafluoroborate] the figure was 47 mM; with `CCn1c(=NN=c2sc3ccccc3n2CC)sc2ccccc21` [N,N′-Bis-(3-ethyl-3H-benzothiazol-2-ylidene)-hydrazine, reference compound], 12 mM (≈ 4250 µg/mL).

The same series, now with this note: saturated solution in propylene carbonate; ambient temperature.
On to `CC[N+](CC)(CC)CCN1c2ccc(C)cc2N(CC[N+](CC)(CC)CC)c2ccc(C)cc21.F[B-](F)(F)F.F[B-](F)(F)F` [2,7-Dimethyl-5,10-bis-2-(triethylammonium)ethylphenazine [BF4]2], for which the “Solubility in propylene carbonate” value was 250 mM.
On to “1-Triethylammonium-6-(tetra-t-butylferrocenyl)hexane BF4”, for which the “Solubility in propylene carbonate” value was 514.4 mM.
Consider `CC[N+](CC)(CC)CCN1c2ccccc2N(CC[N+](CC)(CC)CC)c2ccccc21.F[B-](F)(F)F.F[B-](F)(F)F` [5,10-Bis-2-(triethylammonium)ethylphenazine [BF4]2], for which the “Solubility in propylene carbonate” value is reported as 200 mM.
For the molecule `F[B-](F)(F)F.F[B-](F)(F)F.N#Cc1ccc(-[n+]2ccc(-c3cc[n+](CCC[c-]4cccc4)cc3)cc2)cc1.[Fe+2].c1cc[cH-]c1` [Ferrocenepropyl-p-cyanophenylviologen tetrafluoroborate], the “Solubility in propylene carbonate” value is reported as 276.0 mM.

(Values after patent US6445486B1, “Electroactive materials and beneficial agents having a solubilizing moiety” (Gentex Corporation, priority 1999, dated 2002).)
